Reference: ChEMBL document CHEMBL3244280, “Thiazolinone analogues of indolmycin with antiviral and antibacterial activity” (J Med Chem, 1978)
Converted amounts (≈) assume the structure as drawn. The source made the active and inactive calls. No cut-off for these calls is given here.

Assays:
[1] = Cytotoxicity against BHK cells; assay type: cell-based, Mesocricetus auratus; settings: hamster
Influenza A virus [2] = assay: Antiviral activity against influenza A virus NWS/H0N1 infected in BHK cells at 1 mg/ml by agar diffusion assay; assay type: functional; settings: read-out: IZ
Influenza A virus [3] = assay: Antiviral activity against influenza A virus NWS/H0N1 infected in BHK cells by agar diffusion assay; assay type: functional
Coxsackievirus B1 [4] = assay: Antiviral activity against Coxsackievirus B1 infected in human HeLa cells at 1 mg/ml by agar diffusion assay; assay type: functional; settings: Enterovirus B; read-out: IZ
[5] = Cytotoxicity against human HeLa cells by neutral red assay; assay type: cell-based
Coxsackievirus B1 [6] = assay: Antiviral activity against Coxsackievirus B1 infected in human HeLa cells by agar diffusion assay; assay type: functional
Staphylococcus aureus [7] = assay: Antibacterial activity against Staphylococcus aureus 1517; assay type: functional
Human alphaherpesvirus 1 = assay: Antiviral activity against Herpes simplex virus 1 infected in chick embryo fibroblasts by plaque reduction assay; assay type: functional, organism-based
Streptococcus pyogenes [8] = assay: Antibacterial activity against Streptococcus pyogenes CN10; assay type: functional
Staphylococcus aureus [9] = assay: Antibacterial activity against Staphylococcus aureus Russel; assay type: functional
Bacillus subtilis [10] = assay: Antibacterial activity against Bacillus subtilis; assay type: functional
Enterococcus faecalis [11] = assay: Antibacterial activity against Streptococcus faecalis I; assay type: functional
HeLa = assay: Cytotoxicity against human HeLa cells up to 100 ug/ml; assay type: cell-based
Staphylococcus aureus [12] = assay: Antibacterial activity against Staphylococcus aureus 1517 up to 200 ug/ml; assay type: functional, organism-based
Streptococcus pyogenes [13] = assay: Antibacterial activity against Streptococcus pyogenes CN10 up to 200 ug/ml; assay type: functional, organism-based
Influenza A virus [14] = assay: Antiviral activity against influenza A virus NWS/H0N1 infected in BHK cells up to 100 ug/ml by agar diffusion assay; assay type: functional, organism-based
[15] = Cytotoxicity against BHK cells up to 100 ug/ml by carbol fuschin assay; assay type: cell-based, Mesocricetus auratus; settings: hamster
Coxsackievirus B1 [16] = assay: Antiviral activity against Coxsackievirus B1 infected in human HeLa cells up to 100 ug/ml by agar diffusion assay; assay type: functional, organism-based
Enterococcus faecalis [17] = assay: Antibacterial activity against Streptococcus faecalis I up to 200 ug/ml; assay type: functional, organism-based
Staphylococcus aureus [18] = assay: Antibacterial activity against Staphylococcus aureus Russel up to 200 ug/ml; assay type: functional, organism-based
Bacillus subtilis [19] = assay: Antibacterial activity against Bacillus subtilis up to 200 ug/ml; assay type: functional, organism-based
Staphylococcus aureus [20] = assay: Antibacterial activity against Staphylococcus aureus Oxford up to 200 ug/ml; assay type: functional, organism-based
Staphylococcus aureus [21] = assay: Antibacterial activity against Staphylococcus aureus Oxford; assay type: functional

SMILES | zone of inhibition at 1000 µg/mL (Influenza A virus [2]) | zone of inhibition at 1000 µg/mL (Coxsackievirus B1 [4]) | MIC (Staphylococcus aureus [7]) | Activity (Human alphaherpesvirus 1) | MIC (Streptococcus pyogenes [8]) | MIC (Staphylococcus aureus [9]) | MIC (Bacillus subtilis [10]) | MIC (Enterococcus faecalis [11]) | Activity (HeLa) | Activity (Staphylococcus aureus [12]) | Activity (Streptococcus pyogenes [13]) | Activity (Influenza A virus [14]) | Activity [15] | Activity (Coxsackievirus B1 [16]) | Activity (Enterococcus faecalis [17]) | Activity (Staphylococcus aureus [18]) | Activity (Bacillus subtilis [19]) | Activity (Staphylococcus aureus [20]) | also measured
OC(c1ccccc1)c1nc2ccccc2[nH]1 (stereo not drawn) | 0 mm | 24 mm | – | – | – | – | – | – | – | – | – | – | – | – | – | – | – | – | MCC [1]: > 100 µg/mL; PDD50 (Influenza A virus [3]): >100 µg/mL; MCC [5]: 100 µg/mL; PDD50 (Coxsackievirus B1 [6]): 20 µg/mL
C[C@H](c1c[nH]c2ccccc12)[C@@H]1SC(N)=NC1=O | 0 mm | 0 mm | 20 µg/mL (≈ 77.1 µM) | inactive | 200 µg/mL (≈ 771 µM) | 20 µg/mL (≈ 77.1 µM) | 200 µg/mL (≈ 771 µM) | 20 µg/mL (≈ 77.1 µM) | – | – | – | – | – | – | – | – | – | – | MCC [1]: 100 µg/mL; PDD50 (Influenza A virus [3]): 50 µg/mL
CNC1=NC(=O)[C@@H]([C@@H](C)c2c[nH]c3ccccc23)S1 | – | – | – | inactive | – | – | – | – | Non-toxic | inactive | inactive | inactive | Non-toxic | inactive | inactive | inactive | inactive | inactive | –
CNC1=NC(=O)[C@H]([C@H](C)c2c[nH]c3ccccc23)S1 | – | – | – | inactive | – | – | – | – | – | – | – | – | – | – | – | – | – | – | –
NC1=NC(=O)C(Cc2c[nH]c3ccccc23)S1 (racemic) | 0 mm | 0 mm | 200 µg/mL (≈ 815 µM) | inactive | > 200 µg/mL | 200 µg/mL (≈ 815 µM) | > 200 µg/mL | 200 µg/mL (≈ 815 µM) | – | – | – | – | – | – | – | – | – | – | MIC (Staphylococcus aureus [21]): 200 µg/mL (≈ 815 µM)
CN(C)C1=NC(=O)C(Cc2c[nH]c3ccccc23)S1 (racemic) | – | – | – | inactive | – | – | – | – | Non-toxic | inactive | inactive | inactive | Non-toxic | inactive | inactive | inactive | inactive | inactive | –
CCNC1=NC(=O)C(Cc2c[nH]c3ccccc23)S1 (racemic) | – | – | – | inactive | – | – | – | – | Non-toxic | inactive | inactive | inactive | Non-toxic | inactive | inactive | inactive | inactive | inactive | –
O=C1N=C(NCCO)SC1Cc1c[nH]c2ccccc12 (racemic) | – | – | – | inactive | – | – | – | – | Non-toxic | inactive | inactive | inactive | Non-toxic | inactive | inactive | inactive | inactive | inactive | –
O=C1N=C(NCc2ccccc2)SC1Cc1c[nH]c2ccccc12 (racemic) | – | – | – | inactive | – | – | – | – | Non-toxic | inactive | inactive | inactive | Non-toxic | inactive | inactive | inactive | inactive | inactive | –
CNC1=NC(=O)C(Cc2cn(C)c3ccccc23)S1 (racemic) | – | – | – | inactive | – | – | – | – | Non-toxic | inactive | inactive | inactive | Non-toxic | inactive | inactive | inactive | inactive | inactive | –
CN1C(=N)SC(Cc2c[nH]c3ccccc23)C1=O (racemic) | – | – | – | inactive | – | – | – | – | Non-toxic | inactive | inactive | inactive | Non-toxic | inactive | inactive | inactive | inactive | inactive | –
C/N=C1/SC(Cc2c[nH]c3ccccc23)C(=O)N1C (racemic) | – | – | – | inactive | – | – | – | – | Non-toxic | inactive | inactive | inactive | Non-toxic | inactive | inactive | inactive | inactive | inactive | –
CCN1C(=N)SC(Cc2c[nH]c3ccccc23)C1=O (racemic) | – | – | – | inactive | – | – | – | – | Non-toxic | inactive | inactive | inactive | Non-toxic | inactive | inactive | inactive | inactive | inactive | –
O=C1N/C(=N\c2ccccc2)SC1Cc1c[nH]c2ccccc12 (racemic) | – | – | – | inactive | – | – | – | – | Non-toxic | inactive | inactive | inactive | Non-toxic | inactive | inactive | inactive | inactive | inactive | –
O=C1NC(=S)SC1Cc1c[nH]c2ccccc12 (racemic) | – | – | – | inactive | – | – | – | – | Non-toxic | inactive | inactive | inactive | Non-toxic | inactive | inactive | inactive | inactive | inactive | –
CNC1=NC(=O)[C@H]([C@H](C)c2c[nH]c3ccccc23)S1 (racemic) [listing 1 of 2 here] | 36 mm | 29 mm | 2 µg/mL (≈ 7.32 µM) | – | 200 µg/mL (≈ 732 µM) | 2 µg/mL (≈ 7.32 µM) | 20 µg/mL (≈ 73.2 µM) | 2 µg/mL (≈ 7.32 µM) | – | – | – | – | – | – | – | – | – | – | MCC [1]: 10 µg/mL; MIC (Staphylococcus aureus [21]): 2 µg/mL (≈ 7.32 µM); PDD50 (Influenza A virus [3]): 3 µg/mL; MCC [5]: 30 µg/mL; PDD50 (Coxsackievirus B1 [6]): 5 µg/mL
C[C@H](c1c[nH]c2ccccc12)[C@@H]1SC(N(C)C)=NC1=O (racemic) | 0 mm | 0 mm | 20 µg/mL (≈ 69.6 µM) | inactive | > 200 µg/mL | 20 µg/mL (≈ 69.6 µM) | > 200 µg/mL | > 200 µg/mL | – | – | – | – | – | – | – | – | – | – | MIC (Staphylococcus aureus [21]): 20 µg/mL (≈ 69.6 µM)
C[C@H](c1c[nH]c2ccccc12)[C@@H]1SC(NCCN(C)C)=NC1=O.Cl (racemic) | – | – | – | inactive | – | – | – | – | Non-toxic | inactive | inactive | inactive | Non-toxic | inactive | inactive | inactive | inactive | inactive | –
C/N=C1/S[C@@H]([C@H](C)c2c[nH]c3ccccc23)C(=O)N1C (racemic) | – | – | 2 µg/mL (≈ 6.96 µM) | inactive | 200 µg/mL (≈ 696 µM) | 2 µg/mL (≈ 6.96 µM) | 20 µg/mL (≈ 69.6 µM) | 2 µg/mL (≈ 6.96 µM) | Non-toxic | inactive | inactive | inactive | Non-toxic | inactive | inactive | inactive | inactive | inactive | MCC [1]: 4 µg/mL; MIC (Staphylococcus aureus [21]): 2 µg/mL (≈ 6.96 µM); PDD50 (Influenza A virus [3]): 1.2 µg/mL; MCC [5]: 12 µg/mL; PDD50 (Coxsackievirus B1 [6]): 3 µg/mL
CNC1=NC(=O)[C@@H]([C@H](C)c2c[nH]c3ccccc23)O1 (racemic) | 0 mm | 0 mm | 200 µg/mL (≈ 777 µM) | – | > 200 µg/mL | 200 µg/mL (≈ 777 µM) | > 200 µg/mL | 200 µg/mL (≈ 777 µM) | – | – | – | – | – | – | – | – | – | – | MCC [1]: > 100 µg/mL; MIC (Staphylococcus aureus [21]): 200 µg/mL (≈ 777 µM); PDD50 (Influenza A virus [3]): >100 µg/mL
CNC1=NC(=O)[C@H]([C@H](C)c2c[nH]c3ccccc23)S1 (racemic) [listing 2 of 2 here] | – | – | – | inactive | – | – | – | – | – | – | – | – | – | – | – | – | – | – | –
CNC1=NC(=O)[C@H]([C@H](C)c2c[nH]c3ccccc23)O1 (racemic) [INDOMYCIN] | 0 mm | 0 mm | 2 µg/mL (≈ 7.77 µM) | – | 200 µg/mL (≈ 777 µM) | 2 µg/mL (≈ 7.77 µM) | 20 µg/mL (≈ 77.7 µM) | 2 µg/mL (≈ 7.77 µM) | – | – | – | – | – | – | – | – | – | – | MCC [1]: > 100 µg/mL; MIC (Staphylococcus aureus [21]): 2 µg/mL (≈ 7.77 µM); PDD50 (Influenza A virus [3]): >100 µg/mL
CC1(C)S[C@@H]2[C@H](NC(=O)[C@H](N)c3ccccc3)C(=O)N2[C@H]1C(=O)O [AMPICILLIN] | – | – | 20 µg/mL (≈ 57.2 µM) | – | 2 µg/mL (≈ 5.72 µM) | 2 µg/mL (≈ 5.72 µM) | 2 µg/mL (≈ 5.72 µM) | 2 µg/mL (≈ 5.72 µM) | – | – | – | – | – | – | – | – | – | – | MIC (Staphylococcus aureus [21]): 2 µg/mL (≈ 5.72 µM)
NC(=O)c1ncn([C@@H]2O[C@H](CO)[C@@H](O)[C@H]2O)n1 [RIBAVIRIN] | 28 mm | 0 mm | – | – | – | – | – | – | – | – | – | – | – | – | – | – | – | – | MCC [1]: > 100 µg/mL; PDD50 (Influenza A virus [3]): 1 µg/mL; MCC [5]: > 100 µg/mL; PDD50 (Coxsackievirus B1 [6]): >100 µg/mL
